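The concentration for 50% growth inhibition is given as GI50. At the TGI there is no net growth.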
Columns and labels:
Test in all cases: NCI anticancer screen, dose series, 384-well format
HOP-92 NSCLC = tested on: HOP-92 NSCLC
T-47D breast = tested on: T-47D breast
SK-MEL-28 melanoma = tested on: SK-MEL-28 melanoma
786-0 renal = tested on: 786-0 renal
HCT-116 colon = tested on: HCT-116 colon
SK-OV-3 ovarian = tested on: SK-OV-3 ovarian
MALME-3M melanoma = tested on: MALME-3M melanoma
PC-3 prostate = tested on: PC-3 prostate
NCI-H226 lung = tested on: NCI-H226 lung
SF-295 CNS = tested on: SF-295 CNS
CCRF-CEM leukemia = tested on: CCRF-CEM leukemia
NCI-H522 lung = tested on: NCI-H522 lung
A549 NSCLC = tested on: A549 NSCLC
M14 melanoma = tested on: M14 melanoma
SNB-19 CNS = tested on: SNB-19 CNS
NCI/ADR-RES ovarian = tested on: NCI/ADR-RES ovarian
A498 renal = tested on: A498 renal
RXF 393 renal = tested on: RXF 393 renal
IGROV1 ovarian = tested on: IGROV1 ovarian
SN12C renal = tested on: SN12C renal
U251 glioblastoma = tested on: U251 glioblastoma
HL-60(TB) leukemia = tested on: HL-60(TB) leukemia
SK-MEL-5 melanoma = tested on: SK-MEL-5 melanoma
DU-145 prostate = tested on: DU-145 prostate
OVCAR-3 ovarian = tested on: OVCAR-3 ovarian
NCI-H460 NSCLC = tested on: NCI-H460 NSCLC
MCF7 breast = tested on: MCF7 breast
NCI-H23 lung = tested on: NCI-H23 lung
HS 578T breast = tested on: HS 578T breast
RPMI-8226 leukemia = tested on: RPMI-8226 leukemia
MDA-MB-468 breast = tested on: MDA-MB-468 breast
TK-10 renal = tested on: TK-10 renal
K-562 leukemia = tested on: K-562 leukemia
ACHN renal = tested on: ACHN renal
HCC-2998 colon = tested on: HCC-2998 colon
SF-539 CNS = tested on: SF-539 CNS
OVCAR-5 ovarian = tested on: OVCAR-5 ovarian
BT-549 breast = tested on: BT-549 breast
OVCAR-4 ovarian = tested on: OVCAR-4 ovarian
HCT-15 colon = tested on: HCT-15 colon
SR leukemia = tested on: SR leukemia
MOLT-4 leukemia = tested on: MOLT-4 leukemia
NCI-H322M lung = tested on: NCI-H322M lung
KM12 colon = tested on: KM12 colon
EKVX NSCLC = tested on: EKVX NSCLC
COLO 205 colon = tested on: COLO 205 colon
HT29 colon = tested on: HT29 colon
LOX IMVI melanoma = tested on: LOX IMVI melanoma
MDA-MB-435 melanoma = tested on: MDA-MB-435 melanoma
CAKI-1 renal = tested on: CAKI-1 renal
OVCAR-8 ovarian = tested on: OVCAR-8 ovarian
UACC-257 melanoma = tested on: UACC-257 melanoma
HOP-62 NSCLC = tested on: HOP-62 NSCLC
SNB-75 CNS = tested on: SNB-75 CNS
MDA-MB-231 breast = tested on: MDA-MB-231 breast
SF-268 CNS = tested on: SF-268 CNS
UO-31 renal = tested on: UO-31 renal
SW-620 colon = tested on: SW-620 colon

With `Cc1ccc(NC(=O)c2cccc(N(C)C)c2)cc1NC(=O)c1ccc(O)cc1` the GI50 (HOP-92 NSCLC) was 38.9 µM, the TGI (HOP-92 NSCLC) was over 100 µM and the GI50 (T-47D breast) was 15.1 µM. It also gave a TGI (T-47D breast) of 33.6 µM, a GI50 (SK-MEL-28 melanoma) of 26.3 µM and a TGI (SK-MEL-28 melanoma) of 74.1 µM. It also gave a GI50 ([…]-0 renal) of 33.5 µM, a TGI (786-0 renal) of over 100 µM and a GI50 (HCT-116 colon) of 29.6 µM. It also gave a TGI (HCT-116 colon) of over 100 µM, a GI50 (SK-OV-3 ovarian) of 43.2 µM and a TGI (SK-OV-3 ovarian) of over 100 µM. The GI50 (MALME-3M melanoma) was 23.5 µM, the TGI (MALME-3M melanoma) was 71.5 µM and the GI50 (PC-3 prostate) was 41.6 µM. It also gave a TGI (PC-3 prostate) of over 100 µM, a GI50 (NCI-H226 lung) of 39.6 µM and a TGI (NCI-H226 lung) of over 100 µM. The GI50 (SF-295 CNS) was 25.9 µM, the TGI (SF-295 CNS) was 81.4 µM and the GI50 (CCRF-CEM leukemia) was 22.5 µM. For the same molecule, the TGI (CCRF-CEM leukemia) was 70.7 µM, the GI50 (NCI-H522 lung) was 29.4 µM and the TGI (NCI-H522 lung) was over 100 µM. The GI50 (A549 NSCLC) was 41.5 µM, the TGI (A549 NSCLC) was over 100 µM and the GI50 (M14 melanoma) was 30.5 µM. The TGI (M14 melanoma) was over 100 µM, the GI50 (SNB-19 CNS) was 89.8 µM and the TGI (SNB-19 CNS) was over 100 µM. For the same molecule, the GI50 (NCI/ADR-RES ovarian) was 38.9 µM, the TGI (NCI/ADR-RES ovarian) was over 100 µM and the GI50 (A498 renal) was 48.2 µM. For the same molecule, the TGI (A498 renal) was over 100 µM, the GI50 (RXF 393 renal) was 16.6 µM and the TGI (RXF 393 renal) was 33.2 µM. For the same molecule, the GI50 (IGROV1 ovarian) was 50.1 µM, the TGI (IGROV1 ovarian) was over 100 µM and the GI50 (SN12C renal) was 57 µM. For the same molecule, the TGI (SN12C renal) was over 100 µM, the GI50 (U251 glioblastoma) was 63.5 µM and the TGI (U251 glioblastoma) was over 100 µM. It also gave a GI50 (HL-60(TB) leukemia) of 12.5 µM, a TGI (HL-60(TB) leukemia) of 25.2 µM and a GI50 (SK-MEL-5 melanoma) of 14.9 µM. The TGI (SK-MEL-5 melanoma) was 52.5 µM, the GI50 (DU-145 prostate) was 47.5 µM and the TGI (DU-145 prostate) was over 100 µM. It also gave a GI50 (OVCAR-3 ovarian) of 36.9 µM, a TGI (OVCAR-3 ovarian) of over 100 µM and a GI50 (NCI-H460 NSCLC) of 30.6 µM. The TGI (NCI-H460 NSCLC) was over 100 µM, the GI50 (MCF7 breast) was 30.3 µM and the TGI (MCF7 breast) was over 100 µM. It also gave a GI50 (NCI-H23 lung) of 29.3 µM, a TGI (NCI-H23 lung) of over 100 µM and a GI50 (HS 578T breast) of 41.9 µM. It also gave a TGI (HS 578T breast) of over 100 µM, a GI50 (RPMI-8226 leukemia) of 12.7 µM and a TGI (RPMI-8226 leukemia) of 34.1 µM. For the same molecule, the GI50 (MDA-MB-468 breast) was 18.1 µM, the TGI (MDA-MB-468 breast) was 50.5 µM and the GI50 (TK-10 renal) was 26.8 µM. For the same molecule, the TGI (TK-10 renal) was 91.2 µM, the GI50 (K-562 leukemia) was 12 µM and the TGI (K-562 leukemia) was 25.2 µM. It also gave a GI50 (ACHN renal) of 40.2 µM, a TGI (ACHN renal) of over 100 µM and a GI50 (HCC-2998 colon) of 16.9 µM. It also gave a TGI (HCC-2998 colon) of 36.9 µM, a GI50 (SF-539 CNS) of 42.8 µM and a TGI (SF-539 CNS) of over 100 µM. For the same molecule, the GI50 (OVCAR-5 ovarian) was 69.8 µM, the TGI (OVCAR-5 ovarian) was over 100 µM and the GI50 (BT-549 breast) was 75.2 µM. For the same molecule, the TGI (BT-549 breast) was over 100 µM, the GI50 (OVCAR-4 ovarian) was 33.8 µM and the TGI (OVCAR-4 ovarian) was over 100 µM. It also gave a GI50 (HCT-15 colon) of 30.4 µM, a TGI (HCT-15 colon) of over 100 µM and a GI50 (SR leukemia) of 15 µM. It also gave a TGI (SR leukemia) of 33.5 µM, a GI50 (MOLT-4 leukemia) of 16.8 µM and a TGI (MOLT-4 leukemia) of 34.4 µM. For the same molecule, the GI50 (NCI-H322M lung) was 56.7 µM, the TGI (NCI-H322M lung) was over 100 µM and the GI50 (KM12 colon) was 30.6 µM. It also gave a TGI (KM12 colon) of over 100 µM, a GI50 (EKVX NSCLC) of 45.3 µM and a TGI (EKVX NSCLC) of over 100 µM. The GI50 (COLO 205 colon) was 18.8 µM, the TGI (COLO 205 colon) was 87.2 µM and the GI50 (HT29 colon) was 28.9 µM. For the same molecule, the TGI (HT29 colon) was over 100 µM, the GI50 (LOX IMVI melanoma) was 38.5 µM and the TGI (LOX IMVI melanoma) was over 100 µM. The GI50 (MDA-MB-435 melanoma) was 34.1 µM, the TGI (MDA-MB-435 melanoma) was over 100 µM and the GI50 (CAKI-1 renal) was 54.6 µM. The TGI (CAKI-1 renal) was over 100 µM, the GI50 (OVCAR-8 ovarian) was 37.3 µM and the TGI (OVCAR-8 ovarian) was over 100 µM. It also gave a GI50 (UACC-257 melanoma) of 25.1 µM, a TGI (UACC-257 melanoma) of 69.1 µM and a GI50 (HOP-62 NSCLC) of 43.6 µM. It also gave a TGI (HOP-62 NSCLC) of over 100 µM, a GI50 (SNB-75 CNS) of 54.4 µM and a TGI (SNB-75 CNS) of over 100 µM. For the same molecule, the GI50 (MDA-MB-231 breast) was 32.9 µM, the TGI (MDA-MB-231 breast) was over 100 µM and the GI50 (SF-268 CNS) was 48.4 µM. For the same molecule, the TGI (SF-268 CNS) was over 100 µM, the GI50 (UO-31 renal) was 30.4 µM and the TGI (UO-31 renal) was over 100 µM. The GI50 (SW-620 colon) was 59.2 µM and the TGI (SW-620 colon) was over 100 µM.
